Publication PMC7764795, “Physiological Response of Corynebacterium glutamicum to Indole” (Microorganisms, 2020)

Target: T1, Cg3388 (IhtR) (Corynebacterium glutamicum, UniProt Q8NL89)
T1 construct: gene Cgl3059; Cg3388 with N-terminal His-tag kept (pET16b-cg3388), E. coli BL21(DE3), Ni-NTA
T1 sequence (Q8NL89 1-287): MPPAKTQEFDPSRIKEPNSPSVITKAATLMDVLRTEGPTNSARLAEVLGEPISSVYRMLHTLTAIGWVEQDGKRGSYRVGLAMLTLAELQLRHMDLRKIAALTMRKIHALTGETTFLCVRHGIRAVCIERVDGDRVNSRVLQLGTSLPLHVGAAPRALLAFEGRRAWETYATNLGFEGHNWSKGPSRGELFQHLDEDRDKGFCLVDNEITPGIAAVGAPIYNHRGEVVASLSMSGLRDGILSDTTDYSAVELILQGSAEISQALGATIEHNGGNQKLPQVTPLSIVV
Assay: EMSA, release of target DNA by effector
Format: binding
Settings: threshold, not a constant; Cg3388 in 153-fold molar excess over 45 ng cg3388-iolT2 intergenic DNA; pH 7.5, 10 mM MgCl2, room temperature; effector (inducer) of repressor

concentration above which DNA binding is interfered with [mM] | SMILES
> 0.05 | Oc1ccc(O)c(O)c1 [1,2,4-trihydroxybenzene]
> 0.5 | Oc1ccc(O)cc1 [hydroquinone]
> 4 | c1ccc2[nH]ccc2c1 [indole]
